According to patent publication US10962529B1 (priority 2020, dated 2021):
Entries after “also recorded” stand apart in the source; their conditions may differ.

Legend:
Type in all cases: biochemical
[1] = test system: SARS-COV-2 total protease; test: High throughput FRET screening of fluorogenic dipeptide substrates; details: for Relative fluorescence (change in the fluorescence signal in the presence of SARS-COV-2 protease): relative to FITC-Ahx-H-d-K(Dabcyl) = 100, ex 485 nm, em 535 nm; for Relative fluorescence (change in the fluorescence signal in the presence of SARS-COV-2 protease) / Fluorescence intensity increase relative to H-d peptide: 37° C.; for Fluorescence intensity increase relative to H-d peptide: H-d set as relative scale of 100%
[2] = test system: MERS-COV protease (viral particles)
[3] = test system: SARS-COV-2 live virus (protease); test: Real-time fluorescence kinetics and detection limit of FRET substrate with live virus

Substance: FITC-Ahx-P-P-K(Dabcyl)
- Relative fluorescence (change in the fluorescence signal in the presence of SARS-COV-2 protease) [1]: 55

Substance: FITC-Ahx-R-h-K(Dabcyl) [reference compound]
- Increase in the fluorescence intensity in the presence of SARS-COV-2 protease ([1]; incubated at 37° C., after 3 hours): insignificant increase; also recorded: very minimum fluorescence change

Substance: FITC-Ahx-K-d-K(Dabcyl)
- Relative fluorescence (change in the fluorescence signal in the presence of SARS-COV-2 protease) [1]: 47

Substance: FITC-Ahx-R-d-K(Dabcyl)
- Relative fluorescence (change in the fluorescence signal in the presence of SARS-COV-2 protease) [1]: 67

Substance: FITC-Ahx-H-d-K(Dabcyl)
- Fluorescence intensity increase relative to H-d peptide [1]: 100%
- Relative fluorescence (change in the fluorescence signal in the presence of SARS-COV-2 protease) [1]: 100
- Increase in the fluorescence intensity in the presence of MERS-COV virus [2]: less than 20%
- Change in the fluorescence signal of the substrate [3]: no significant change
- Fraction of the reaction completed within 30 minutes [3]: more than 50%
- Time after which the fluorescence curve plateaus [3]: 1.5 h

Substance: FITC-Ahx-F-R-K(Dabcyl)
- Fluorescence intensity increase relative to H-d peptide [1]: 82%
- Relative fluorescence (change in the fluorescence signal in the presence of SARS-COV-2 protease) [1]: 82

Substance: FITC-Ahx-K-K-K(Dabcyl)
- Relative fluorescence (change in the fluorescence signal in the presence of SARS-COV-2 protease) [1]: 62

Substance: FITC-Ahx-E-d-K(Dabcyl)
- Relative fluorescence (change in the fluorescence signal in the presence of SARS-COV-2 protease) [1]: 58
